From US10088490B2, “Assay for analytes using multiple receptors” (Siemens Healthcare Diagnostics Inc., priority 2010, dated 2018)

Tests used:
Type in all cases: binding
[1] = tested on: Antibody A specific for cortisol (clone 16DC/17.7, IgG1κ); test: LOCI competitive cortisol immunoassay, cross-reactivity screening with Biotinylated Antibody A Reagent; conditions: 100% A Biotinylated Antibody; steroid-stripped serum with cortisol (5 ng/dL)
Protocol: (§1) The antibodies were subjected to analytical size exclusion chromatography prior to any manipulations.
(§2) NHS-PEO4-Biotin was dissolved fresh at 10 mg/mL in Antibody Dialysis Buffer. […] The mixture was rocked at 25° C. for exactly 3 hours. A 200 mM solution of glycine was prepared by dissolving 750 mg glycine in Antibody Dialysis Buffer to a total volume of 50 mL. At the end of the 3-hour biotinylation reaction, 1.52 mL of the 200 mM glycine solution was added to the reaction mixture. The quenched reaction mixture was rocked an additional 60 minutes at 25° C.
(§3) The biotinylated antibody was then purified using preparatory HPLC using Antibody Dialysis Buffer as the mobile phase. […] This reagent was designated as the Biotinylated Antibody Reagent.
(§4) The assay used for screening purposes was conducted on the DIMENSION® VISTA® instrument (system) (Siemens Healthcare Diagnostics Inc., Newark Del.). Initially, 20 μL Biotinylated Antibody Reagent with 15 μL system water was added to the vessel. After 22 seconds, 15 μL sample with 15 μL system water were added to the vessel. After almost 4 minutes, 20 μL Chemibead Reagent with 15 μL system water were added to the vessel. Approximately 7 minutes later, 20 μL Sensibead Reagent with 135 μL system water was added to the vessel. The LOCI® read was taken after approximately 5 minutes. The assay from the first reagent addition to the final read took approximately 16 minutes. The contents of the vessel when the final read is taken were as follows: 2 ng/mL Biotinylated Antibody Reagent, 4 μg/mL Chemibead Reagent, 56 μg/mL Sensibead Reagent, and […] sample. The assay is a competitive format, which means that the greater the concentration of analyte in the sample, the smaller is the signal generation. This is because a detectable complex is formed by the Biotinylated Antibody Reagent, Chemibead Reagent, and Sensibead Reagent in the absence of analyte. The presence of analyte decreases the proportion of Biotinylated Antibody Reagent that is free to form detectable complexes.
(§5) Initial testing used Biotinylated Antibody A Reagent with the other reagents and the methodology described above to analyze the steroid-stripped serum with cortisol. The panel of 34 cross-reactants were individually added to the steroid-stripped serum with a defined concentration of cortisol (5 ng/dL) and assayed. Cross-reactivity data were calculated as follows:
(§6) [formula] The same testing was performed using Biotinylated Antibody L Reagent. The compilation of the percent cross-reactivities for the 34 compounds is referred to as the cross-reactivity profile. The apparent cortisol concentration is the cortisol value obtained when testing a sample containing cortisol and the interfering substance by the above test method that also detects the interfering substance to some degree.

[2] = tested on: Antibody L specific for cortisol (clone XM210, IgG2a); test: LOCI competitive cortisol immunoassay, cross-reactivity screening with Biotinylated Antibody L Reagent; conditions: 100% L Biotinylated Antibody; steroid-stripped serum with cortisol (5 ng/dL)
Protocol: as §1, §2, §3, §4, §5, §6

[3] = tested on: mixture of Biotinylated Antibody A Reagent and Biotinylated Antibody L Reagent; test: LOCI competitive cortisol immunoassay, cross-reactivity with mixtures of Biotinylated Antibody A and L Reagents; conditions: steroid-stripped serum with cortisol
Protocol: as §4, §5, §6
A further study was performed by mixing Biotinylated Antibody A Reagent with Biotinylated Antibody L Reagent in a 50:50 mixture; 80% Biotinylated Antibody A Reagent: 20% Biotinylated Antibody L Reagent; 75% Biotinylated Antibody A Reagent: 25% Biotinylated Antibody L Reagent; and 70% Biotinylated Antibody A Reagent: 30% Biotinylated Antibody L Reagent. […] These reagents were used to test cross-reactivity in stripped serum with cortisol.

[4] = 70% A 30% L Biotinylated Antibody
[5] = 75% A 25% L Biotinylated Antibody
[6] = 80% A 20% L Biotinylated Antibody

Row | SMILES | percent cross reactivity [1] [%] | percent cross reactivity [2] [%] | percent cross reactivity [3, 4] [%] | percent cross reactivity [3, 5] [%] | percent cross reactivity [3, 6] [%]
1 | C[C@]12CCC(=O)C=C1CC[C@@H]1[C@@H]2CC[C@@]2(C)[C@H]1CC[C@]2(O)C(=O)CO [11-deoxycortisol] | 39.8 | 1.7 | 3.0 | 3.2 | 3.7
2 | CC(=O)[C@@]1(O)CC[C@H]2[C@@H]3CC=C4C[C@@H](O)CC[C@]4(C)[C@H]3CC[C@@]21C [17β-hydroxypregnenolone] | 0.1 | 0.1 | 0.1 | 0.1 | 0.1
3 | C[C@]12C=CC(=O)C=C1CC[C@@H]1[C@@H]2[C@@H](O)C[C@@]2(C)[C@H]1CC[C@]2(O)C(=O)CO [prednisolone] | 13.6 | 10.2 | 12.4 | 12.2 | 12.4
4 | C[C@]12CCC(=O)C=C1CC[C@@H]1[C@@H]2[C@@H](O)C[C@@]2(C)[C@H]1CC[C@]2(O)[C@@H](O)CO [20α-dihydrocortisol] | 0.4 | 0.9 | 0.7 | 0.6 | 0.6
5 | CC(=O)OCC(=O)[C@@]1(O)CC[C@H]2[C@@H]3CCC4=CC(=O)CC[C@]4(C)[C@@]3(F)[C@@H](O)C[C@@]21C [fluorocortisone acetate] | 35.3 | 69.3 | 27.8 | 20.9 | 17.0
6 | C[C@]12CCC(=O)C=C1CC[C@@H]1[C@@H]2[C@@H](O)C[C@@]2(C)[C@H]1CC[C@]2(O)C(=O)COS(=O)(=O)O [sulphate 21-cortisol] | 22.5 | 0.2 | 0.6 | 0.7 | 0.9
7 | C[C@]12CC[C@@H](O)C[C@H]1CC[C@@H]1[C@@H]2C(=O)C[C@@]2(C)[C@H]1CC[C@]2(O)[C@@H](O)CO [α-cortolone] | 0.0 | 0.0 | 0.0 | 0.0 | 0.0
8 | C[C@]12CC[C@@H](O)C[C@H]1CC[C@@H]1[C@@H]2CC[C@@]2(C)[C@H]1CC[C@]2(O)C(=O)CO [tetrahydro-11-deoxycortisol] | 0.3 | 0.2 | 0.2 | 0.2 | 0.2
9 | C[C@]12C=CC(=O)C=C1CC[C@@H]1[C@@H]2C(=O)C[C@@]2(C)[C@H]1CC[C@]2(O)C(=O)CO [prednisone] | 26.5 | 0.6 | 1.1 | 1.3 | 1.5
10 | C[C@]12CC[C@@H](O)C[C@H]1CC[C@@H]1[C@@H]2[C@@H](O)C[C@@]2(C)[C@H]1CC[C@]2(O)[C@H](O)CO [β-cortol] | 0.0 | 0.0 | 0.0 | 0.0 | 0.0
11 | CC(=O)[C@H]1CC[C@H]2[C@@H]3CCC4=CC(=O)CC[C@]4(C)[C@H]3CC[C@]12C [progesterone] | 0.6 | 0.6 | 0.6 | 0.6 | 0.6
12 | CC(=O)[C@@]1(O)CC[C@H]2[C@@H]3CCC4=CC(=O)CC[C@]4(C)[C@H]3C(=O)C[C@@]21C [21-deoxycortisone] | 36.4 | 1.4 | 2.5 | 2.7 | 3.1
13 | C[C@]12CC[C@@H](O)C[C@H]1CC[C@@H]1[C@@H]2C(=O)C[C@@]2(C)[C@H]1CC[C@]2(O)[C@H](O)CO [β-cortolone] | 0.0 | 0.0 | 0.0 | 0.0 | 0.0
14 | C[C@]12CCC(=O)C[C@H]1CC[C@@H]1[C@@H]2[C@@H](O)C[C@@]2(C)[C@H]1CC[C@]2(O)C(=O)CO [5β-dihydrocortisol] | 0.4 | 1.3 | 1.0 | 0.9 | 0.8
15 | C[C@]12CCC(=O)C=C1CC[C@@H]1[C@@H]2C(=O)C[C@@]2(C)[C@H]1CC[C@]2(O)[C@@H](O)CO [20α-dihydrocortisone] | 1.5 | 0.2 | 0.4 | 0.5 | 0.5
16 | C[C@]12CC[C@@H](O)C[C@@H]1CC[C@@H]1[C@@H]2[C@@H](O)C[C@@]2(C)[C@H]1CC[C@]2(O)C(=O)CO [allotetrahydrocortisol] | 4.7 | 8.1 | 7.1 | 6.5 | 6.0
17 | CC(=O)[C@H]1CC[C@H]2[C@@H]3CCC4=CC(=O)CC[C@]4(C)[C@H]3[C@@H](O)C[C@]12C [11β-hydroxyprogesterone] | 0.6 | 0.7 | 0.7 | 0.7 | 0.6
18 | C[C@]12CC[C@@H](O)C[C@H]1CC[C@@H]1[C@@H]2[C@@H](O)C[C@@]2(C)[C@H]1CC[C@]2(O)C(=O)CO [tetrahydrocortisol] | 0.0 | 0.1 | 0.1 | 0.1 | 0.0
19 | CC(=O)[C@@]1(O)CC[C@H]2[C@@H]3CCC4=CC(=O)CC[C@]4(C)[C@H]3CC[C@@]21C [17α-hydroxyprogesterone] | 24.1 | 0.9 | 1.6 | 1.8 | 2.1
20 | CC(=O)[C@@]1(O)CC[C@H]2[C@@H]3CCC4=CC(=O)CC[C@]4(C)[C@H]3[C@@H](O)C[C@@]21C [21-deoxycortisol] | 8.3 | 6.4 | 7.2 | 6.9 | 6.9
21 | C[C@]12CC[C@H]3[C@@H](CCC4=CC(=O)CC[C@@]43C)[C@@H]1CC[C@@H]2C(=O)CO [11-deoxycorticosterone] | 0.7 | 0.8 | 0.8 | 0.8 | 0.8
22 | C[C@]12CC[C@@H](O)C[C@H]1CC[C@@H]1[C@@H]2C(=O)C[C@@]2(C)[C@H]1CC[C@]2(O)C(=O)CO [tetrahydrocortisone] | 0.5 | 0.1 | 0.2 | 0.2 | 0.3
